Experimental findings from patent publication US11993599B2, “Therapeutic compounds” (Genentech, Inc., priority 2021, dated 2024) are described below.

For one assay, the target named is T1, BRG1 (Homo sapiens, UniProt P51532).
T1 construct: either BRM primary antibody (Cell signaling Cat #11966) or BRG primary antibody (Abcam, ab 110641); endogenous in cells; host or cells: SW1573
The assay is described as follows: Immunofluorescence assay for BRG1 degradation in SW1573 cells. The settings on record: 20 hours incubation; for DC50: immunofluorescence mean nuclear signal, read-out: BRG1 IF Degradation IC50; for Dmax: SW1573, 20 h, read-out: BRG1 IF Degradation Sinf (%). It is filed as cell-based. Here is the method:
(§1) Example B-2: Immunofluorescence Assay for BRM and BRG1 Degraders
(§2) SW1573 cells were seeded at 3000 cells/well in 384 well plates. The next day, compounds were added using an Echo dispenser. After 20 hours of incubation with compound, cells were fixed with 4% formaldehyde then permeabilized with 0.2% Triton X-100 and blocked with 10% FCS. Fixed and permeabilized cells were treated overnight at 4° C. with either BRM primary antibody (Cell signaling Cat #11966) or BRG primary antibody (Abcam, ab 110641). Finally, cells were treated with fluorescently labeled secondary antibodies for 1 hr (Donkey anti-Rabbit IgG AF488, Life Technologies, A21206) and Hoechst nuclear stain (#H3569) was added for 30 minutes. Cells were washed with PBS in between each step and before imaging on an Opera Phenix microscope (Perkin Elmer). Harmony software (Perking Elmer) was used to quantify the mean nuclear signaling intensity of BRM or BRG signaling per cell in each well. Dose responses were determined from the concentration dependent response of mean nuclear signal intensity with data normalized to a known degrader control. Dose response curves were fit to a floating maximum to allow for calculation of the Dmax.
(§3) Note that, in Table 5, the “Compound Number” corresponds to that used in Table 1. In Table 5, for BRM and BRG1 IF degradation IC50 (μM): A indicates <0.010 μM, B indicates 0.010-0.10 μM, and C indicates >0.10 μM; and for BRM and BRG1 IF degradation Sinf % D indicates 0-−30%, E indicates −30%-−70%, F indicates −71%-−120% and ND indicates the value was not determined.

Another assay has as its target BRM (Homo sapiens, UniProt P51531). Briefly: Immunofluorescence assay for BRM degradation in SW1573 cells. The class given is cell-based. More on the design: treated overnight at 4° C. with either BRM primary antibody (Cell signaling Cat #11966) or BRG primary antibody; endogenous in cells; host or cells: SW1573. The conditions noted are these: 20 hours incubation; for DC50: immunofluorescence mean nuclear signal, read-out: BRM IF Degradation IC50; for BRM IF Degradation Sinf (%): normalized to a known degrader control. The procedure: as §1, §2, §3

[1] abbreviates: normalized to a known degrader control.

Sequence of BRM (P51531 whole entry): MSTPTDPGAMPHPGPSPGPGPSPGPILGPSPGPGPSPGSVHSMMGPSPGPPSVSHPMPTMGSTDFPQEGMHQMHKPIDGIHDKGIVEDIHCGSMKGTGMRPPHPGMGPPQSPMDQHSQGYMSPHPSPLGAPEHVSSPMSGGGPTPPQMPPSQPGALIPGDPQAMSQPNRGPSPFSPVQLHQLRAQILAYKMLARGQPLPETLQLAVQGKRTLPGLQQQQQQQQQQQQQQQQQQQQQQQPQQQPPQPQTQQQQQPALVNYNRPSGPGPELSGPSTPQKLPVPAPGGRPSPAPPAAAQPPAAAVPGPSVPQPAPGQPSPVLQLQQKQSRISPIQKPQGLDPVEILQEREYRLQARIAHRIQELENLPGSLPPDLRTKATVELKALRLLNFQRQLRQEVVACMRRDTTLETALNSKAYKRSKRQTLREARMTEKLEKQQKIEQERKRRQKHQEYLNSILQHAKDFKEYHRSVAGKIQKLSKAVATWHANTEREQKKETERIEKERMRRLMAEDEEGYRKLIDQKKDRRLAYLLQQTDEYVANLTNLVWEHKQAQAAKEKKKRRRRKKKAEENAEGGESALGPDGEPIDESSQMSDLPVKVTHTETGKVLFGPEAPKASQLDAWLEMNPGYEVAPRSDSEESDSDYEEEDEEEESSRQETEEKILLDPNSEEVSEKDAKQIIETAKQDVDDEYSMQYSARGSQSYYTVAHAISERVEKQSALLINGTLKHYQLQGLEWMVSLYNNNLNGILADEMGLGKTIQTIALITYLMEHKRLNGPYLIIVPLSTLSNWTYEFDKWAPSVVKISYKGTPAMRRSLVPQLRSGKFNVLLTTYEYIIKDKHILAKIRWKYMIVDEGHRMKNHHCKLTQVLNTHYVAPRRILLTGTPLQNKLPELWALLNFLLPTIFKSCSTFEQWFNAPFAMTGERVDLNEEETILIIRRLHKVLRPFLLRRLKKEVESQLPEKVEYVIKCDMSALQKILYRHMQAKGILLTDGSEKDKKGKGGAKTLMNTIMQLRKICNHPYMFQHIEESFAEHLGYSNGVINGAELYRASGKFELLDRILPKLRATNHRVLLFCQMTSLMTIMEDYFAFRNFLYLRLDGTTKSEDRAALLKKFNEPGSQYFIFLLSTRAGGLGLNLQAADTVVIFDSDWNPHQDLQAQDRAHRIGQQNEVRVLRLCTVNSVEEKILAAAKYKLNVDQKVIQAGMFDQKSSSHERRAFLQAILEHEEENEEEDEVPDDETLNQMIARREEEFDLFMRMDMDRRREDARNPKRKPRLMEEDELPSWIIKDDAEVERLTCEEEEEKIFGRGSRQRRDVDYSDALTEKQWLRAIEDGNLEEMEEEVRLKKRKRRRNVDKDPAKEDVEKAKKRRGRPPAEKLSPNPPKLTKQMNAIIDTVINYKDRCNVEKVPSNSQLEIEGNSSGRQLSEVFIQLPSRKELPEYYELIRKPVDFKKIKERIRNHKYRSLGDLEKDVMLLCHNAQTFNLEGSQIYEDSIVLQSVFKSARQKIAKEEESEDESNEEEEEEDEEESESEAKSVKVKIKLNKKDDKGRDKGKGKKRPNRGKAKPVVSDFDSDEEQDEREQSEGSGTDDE
T1 sequence (P51532 whole entry): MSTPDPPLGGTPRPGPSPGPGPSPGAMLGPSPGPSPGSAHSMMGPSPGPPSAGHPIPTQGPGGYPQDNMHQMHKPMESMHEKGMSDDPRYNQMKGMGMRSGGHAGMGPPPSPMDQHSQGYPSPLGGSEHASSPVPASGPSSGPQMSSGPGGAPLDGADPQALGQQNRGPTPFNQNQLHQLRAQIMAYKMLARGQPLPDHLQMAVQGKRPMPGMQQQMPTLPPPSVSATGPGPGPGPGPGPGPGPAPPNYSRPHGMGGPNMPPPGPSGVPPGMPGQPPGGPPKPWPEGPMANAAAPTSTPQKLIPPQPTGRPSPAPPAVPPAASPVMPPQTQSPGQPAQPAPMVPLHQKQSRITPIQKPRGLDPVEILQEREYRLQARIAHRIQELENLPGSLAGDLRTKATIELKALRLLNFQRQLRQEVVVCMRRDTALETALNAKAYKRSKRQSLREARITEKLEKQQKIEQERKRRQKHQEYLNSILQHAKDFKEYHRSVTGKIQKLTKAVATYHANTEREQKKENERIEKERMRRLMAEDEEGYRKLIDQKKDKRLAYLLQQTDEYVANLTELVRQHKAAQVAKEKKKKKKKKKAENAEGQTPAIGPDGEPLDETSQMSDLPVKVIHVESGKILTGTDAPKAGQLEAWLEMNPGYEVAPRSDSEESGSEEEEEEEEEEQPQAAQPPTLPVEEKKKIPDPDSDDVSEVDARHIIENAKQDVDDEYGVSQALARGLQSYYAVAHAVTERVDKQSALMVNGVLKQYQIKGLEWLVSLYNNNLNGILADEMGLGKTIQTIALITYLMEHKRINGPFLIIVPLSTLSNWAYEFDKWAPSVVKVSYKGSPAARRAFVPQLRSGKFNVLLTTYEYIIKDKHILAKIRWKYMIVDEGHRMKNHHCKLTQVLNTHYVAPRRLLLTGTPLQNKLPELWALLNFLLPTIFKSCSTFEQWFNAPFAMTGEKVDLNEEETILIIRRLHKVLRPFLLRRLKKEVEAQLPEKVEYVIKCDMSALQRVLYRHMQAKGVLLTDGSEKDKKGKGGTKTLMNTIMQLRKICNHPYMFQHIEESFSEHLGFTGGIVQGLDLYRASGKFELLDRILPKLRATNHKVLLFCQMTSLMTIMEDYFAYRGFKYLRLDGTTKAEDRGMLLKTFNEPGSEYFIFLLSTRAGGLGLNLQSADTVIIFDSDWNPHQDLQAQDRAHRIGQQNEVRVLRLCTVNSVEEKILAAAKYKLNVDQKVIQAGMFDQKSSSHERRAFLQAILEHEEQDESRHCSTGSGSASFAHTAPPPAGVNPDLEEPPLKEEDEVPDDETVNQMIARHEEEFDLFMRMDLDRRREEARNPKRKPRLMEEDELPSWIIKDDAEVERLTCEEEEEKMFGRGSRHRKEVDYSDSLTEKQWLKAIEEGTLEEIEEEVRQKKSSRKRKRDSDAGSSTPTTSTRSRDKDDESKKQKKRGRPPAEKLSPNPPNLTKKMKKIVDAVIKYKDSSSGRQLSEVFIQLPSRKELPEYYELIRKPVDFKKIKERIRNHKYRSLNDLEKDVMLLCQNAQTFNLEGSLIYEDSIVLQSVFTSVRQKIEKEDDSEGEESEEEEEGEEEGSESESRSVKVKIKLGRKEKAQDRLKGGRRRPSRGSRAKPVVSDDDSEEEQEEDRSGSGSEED

As for `Nc1nnc(-c2ccccc2O)cc1N1CC2CCC(C1)N2c1ccnc(C#CCN2C[C@H]3CCCC[C@H]3C2)c1` [Compound 60, 2-[5-[8-[2-[3-[(3aS,7aR)-1,3,3a,4,5,6,7,7a-octahydroisoindol-2-yl]prop-1-ynyl]-4-pyridyl]-3,8-diazabicyclo[3.2.1]octan-3-yl]-6-amino-pyridazin-3-yl]phenol], the DC50 at BRG1 and on BRM was less than 10 nM throughout. Further, at BRG1 (setting [1]), the Dmax is 30 to 70%. The “BRM IF Degradation Sinf (%)” value at BRM is listed as “E (E indicates −30%-−70%)”.
For the compound `CC1CCCN(CC#Cc2cc(N3C4CCC3CN(c3cc(-c5ccccc5O)nnc3N)C4)ccn2)C1` (centres unmarked) [Compound 61, 2-[6-amino-5-[8-[2-[3-(3-methyl-1-piperidyl)prop-1-ynyl]-4-pyridyl]-3,8-diazabicyclo[3.2.1]octan-3-yl]pyridazin-3-yl]phenol], the DC50 on BRG1 was less than 10 nM. The Dmax at BRG1 (setting [1]) fell in the range of 30 to 70%. On BRM, the DC50 was less than 10 nM and the “BRM IF Degradation Sinf (%)” value is given as “E (E indicates −30%-−70%)”.
On to `CC1(O)CCN(CC#Cc2cc(N3C4CCC3CN(c3cc(-c5ccccc5O)nnc3N)C4)ccn2)C1` (centres unmarked) [Compound 62, 1-[3-[4-[3-[3-amino-6-(2-hydroxyphenyl)pyridazin-4-yl]-3,8-diazabicyclo[3.2.1]octan-8-yl]-2-pyridyl]prop-2-ynyl]-3-methyl-pyrrolidin-3-ol], for which the DC50 on BRG1 was less than 10 nM. Besides, the Dmax at BRG1 (setting [1]) lay within 30 to 70%. Further, on BRM, the DC50 is less than 10 nM and the “BRM IF Degradation Sinf (%)” value is given as “E (E indicates −30%-−70%)”.
Take `Nc1nnc(-c2ccccc2O)cc1N1CC2CCC(C1)N2c1ccnc(C#CCN2CC3CCCC3C2)c1` (centres unmarked) [Compound 63, 2-[5-[8-[2-[3-(3,3a,4,5,6,6a-hexahydro-1H-cyclopenta[c]pyrrol-2-yl)prop-1-ynyl]-4-pyridyl]-3,8-diazabicyclo[3.2.1]octan-3-yl]-6-amino-pyridazin-3-yl]phenol]: at BRG1, the DC50 was less than 10 nM. The Dmax at BRG1 (setting [1]) was in the range of 30 to 70%. Also, on BRM, the DC50 was less than 10 nM and the “BRM IF Degradation Sinf (%)” value is “F (F indicates −71%-−120%)”.
With `CC[C@H]1COCCN1CC#Cc1cc(N2C3CCC2CN(c2cc(-c4ccccc4O)nnc2N)C3)ccn1` [Compound 64, 2-[6-amino-5-[8-[2-[3-[(3S)-3-ethylmorpholin-4-yl]prop-1-ynyl]-4-pyridyl]-3,8-diazabicyclo[3.2.1]octan-3-yl]pyridazin-3-yl]phenol], on BRG1, the DC50 was in the range of 10 to 100 nM. Besides, the Dmax at BRG1 (setting [1]) was in the range of 0 to 30%. At BRM, the DC50 lay within 10 to 100 nM and the “BRM IF Degradation Sinf (%)” value was “E (E indicates −30%-−70%)”.
`Nc1nnc(-c2ccccc2O)cc1N1CC2CCC(C1)N2c1ccnc(C#CCN2CCC[C@@H]2CO)c1` [Compound 65, 2-[6-amino-5-[8-[2-[3-[(2R)-2-(hydroxymethyl)pyrrolidin-1-yl]prop-1-ynyl]-4-pyridyl]-3,8-diazabicyclo[3.2.1]octan-3-yl]pyridazin-3-yl]phenol]: the results for the DC50 at BRG1 and on BRM were 10 to 100 nM and less than 10 nM, respectively. In addition, the Dmax on BRG1 (setting [1]) lay within 0 to 30%. Moreover, at BRM, the “BRM IF Degradation Sinf (%)” value is “E (E indicates −30%-−70%)”.
For `Nc1nnc(-c2ccccc2O)cc1N1CC2CCC(C1)N2c1ccnc(C#CCN2CC3(CCCCO3)C2)c1` [Compound 66, 2-[6-amino-5-[8-[2-[3-(5-oxa-2-azaspiro[3.5]nonan-2-yl)prop-1-ynyl]-4-pyridyl]-3,8-diazabicyclo[3.2.1]octan-3-yl]pyridazin-3-yl]phenol], the DC50 at BRG1 lay within 10 to 100 nM. In addition, the Dmax at BRG1 (setting [1]) lay within 30 to 70%. For the same compound, at BRM, the DC50 is less than 10 nM and the “BRM IF Degradation Sinf (%)” value is reported as “F (F indicates −71%-−120%)”.
For `Nc1nnc(-c2ccccc2O)cc1N1CC2CCC(C1)N2c1ccnc(C#CCN2CCN3CCCC3C2)c1` (centres unmarked) [Compound 67, 2-[5-[8-[2-[3-(3,4,6,7,8,8a-hexahydro-1H-pyrrolo[1,2-a]pyrazin-2-yl)prop-1-ynyl]-4-pyridyl]-3,8-diazabicyclo[3.2.1]octan-3-yl]-6-amino-pyridazin-3-yl]phenol], in that order: less than 10 nM, 0 to 30%, 10 to 100 nM and “E (E indicates −30%-−70%)”.
For `Nc1nnc(-c2ccccc2O)cc1N1CC2CCC(C1)N2c1ccnc(C#CCN2CC3CC3C2)c1` (centres unmarked) [Compound 68, 2-[6-amino-5-[8-[2-[3-(3-azabicyclo[3.1.0]hexan-3-yl)prop-1-ynyl]-4-pyridyl]-3,8-diazabicyclo[3.2.1]octan-3-yl]pyridazin-3-yl]phenol;], in that order: less than 10 nM, 30 to 70%, less than 10 nM and “F (F indicates −71%-−120%)”.
On to `Nc1nnc(-c2ccccc2O)cc1N1CC2CCC(C1)N2c1ccnc(C#CCN2CCC23CCOC3)c1` (centres unmarked) [Compound 69, 2-[6-amino-5-[8-[2-[3-(7-oxa-1-azaspiro[3.4]octan-1-yl)prop-1-ynyl]-4-pyridyl]-3,8-diazabicyclo[3.2.1]octan-3-yl]pyridazin-3-yl]phenol], for which the DC50 on BRG1 and on BRM was less than 10 nM each time. Also, the “BRG1 IF Degradation Sinf (%)” value at BRG1 (setting [1]) is “E (E indicates −30%-−70%)”. Further, on BRM, the “BRM IF Degradation Sinf (%)” value was “F (F indicates −71%-−120%)”.
For the compound `Nc1nnc(-c2ccccc2O)cc1N1CC2CCC(C1)N2c1ccnc(C#CCN2CCCOCC2)c1` [Compound 70, 2-[6-amino-5-[8-[2-[3-(l,4-oxazepan-4-yl)prop-1-ynyl]-4-pyridyl]-3,8-diazabicyclo[3.2.1]octan-3-yl]pyridazin-3-yl]phenol], at BRG1, the DC50 was less than 10 nM. For the same compound, the Dmax at BRG1 (setting [1]) fell in the range of 30 to 70%. Further, on BRM, the DC50 is less than 10 nM and the “BRM IF Degradation Sinf (%)” value was “E (E indicates −30%-−70%)”.
`Nc1nnc(-c2ccccc2O)cc1N1CC2CCC(C1)N2c1ccnc(C#CCN2CCC(O)CC2)c1` [Compound 71, 1-[3-[4-[3-[3-amino-6-(2-hydroxyphenyl)pyridazin-4-yl]-3,8-diazabicyclo[3.2.1]octan-8-yl]-2-pyridyl]prop-2-ynyl]piperidin-4-ol]: the DC50 at BRG1 is less than 10 nM. In addition, the Dmax on BRG1 (setting [1]) lay in the range of 30 to 70%. Also, at BRM, the DC50 is 10 to 100 nM and the “BRM IF Degradation Sinf (%)” value was “E (E indicates −30%-−70%)”.
With `Nc1nnc(-c2ccccc2O)cc1N1CC2CCC(C1)N2c1ccnc(C#CCN2CCn3cncc3C2)c1` [Compound 72, 2-[6-amino-5-[8-[2-[3-(6,8-dihydro-5H-imidazo[1,5-a]pyrazin-7-yl)prop-1-ynyl]-4-pyridyl]-3,8-diazabicyclo[3.2.1]octan-3-yl]pyridazin-3-yl]phenol], on BRG1, the DC50 was more than 100 nM. At BRM, the DC50 is 10 to 100 nM and the “BRM IF Degradation Sinf (%)” value is “E (E indicates −30%-−70%)”.
For `Nc1nnc(-c2ccccc2O)cc1N1CC2CCC(C1)N2c1ccnc(C#CCN2CCOCC23CC3)c1` [Compound 73, 2-[6-amino-5-[8-[2-[3-(7-oxa-4-azaspiro[2.5]octan-4-yl)prop-1-ynyl]-4-pyridyl]-3,8-diazabicyclo[3.2.1]octan-3-yl]pyridazin-3-yl]phenol], in that order: more than 100 nM, more than 100 nM and “E (E indicates −30%-−70%)”.
With `Nc1nnc(-c2ccccc2O)cc1N1CC2CCC(C1)N2c1ccnc(C#CCN2CCOC3CC32)c1` (centres unmarked) [Compound 74, 2-[6-amino-5-[8-[2-[3-(2-oxa-5-azabicyclo[4.1.0]heptan-5-yl)prop-1-ynyl]-4-pyridyl]-3,8-diazabicyclo[3.2.1]octan-3-yl]pyridazin-3-yl]phenol], the DC50 on BRG1 was more than 100 nM. On BRM, the DC50 lay within 10 to 100 nM and the “BRM IF Degradation Sinf (%)” value was “E (E indicates −30%-−70%)”.
As for `C[C@H]1CCN(CC#Cc2cc(N3C4CCC3CN(c3cc(-c5ccccc5O)nnc3N)C4)ccn2)C1` [Compound 75, 2-(6-amino-5-(8-(2-(3-((S)-3-methylpyrrolidin-1-yl)prop-1-yn-1-yl)pyridin-4-yl)-3,8-diazabicyclo[3.2.1]octan-3-yl)pyridazin-3-yl)phenol], the DC50 on BRG1 and at BRM was less than 10 nM each time. Further, the Dmax at BRG1 (setting [1]) was 30 to 70%. Besides, the “BRM IF Degradation Sinf (%)” value at BRM was “E (E indicates −30%-−70%)”.
Regarding `Nc1nnc(-c2ccccc2O)cc1N1CC2CCC(C1)N2c1ccnc(C#CCN2CC3COCC3C2)c1` (centres unmarked) [Compound 76, 2-[5-[8-[2-[3-(1,3,3a,4,6,6a-hexahydrofuro[3,4-c]pyrrol-5-yl)prop-1-ynyl]-4-pyridyl]-3,8-diazabicyclo[3.2.1]octan-3-yl]-6-amino-pyridazin-3-yl]phenol], the DC50 at BRG1 was less than 10 nM. The Dmax on BRG1 (setting [1]) was in the range of 0 to 30%. In addition, at BRM, the DC50 was less than 10 nM and the “BRM IF Degradation Sinf (%)” value is on record as “E (E indicates −30%-−70%)”.
